# Measured values reported in patent US20220047702A1, “TARGETED MAGNETIC VEHICLES AND METHOD OF USING THE SAME” (HADASIT MEDICAL RESEARCH SERVICES AND DEVELOPMENT LTD., priority 2019, published 2022).
# Entries after “also recorded” stand apart in the source; their conditions may differ.
# Tests used:
# CT26 tumors = assay: Anti-tumor activity of systemically administered 5FU in tumor-xenografted mice; assay type: in vivo; conditions: three consecutive intraperitoneal injections, vs normal saline
# Protocol: Male BALB/c mice (6 weeks of age, Envigo, Israel) were used for all in-vivo experiments. All experiments were performed with approval and in accordance with the guidelines of the Institutional Animal Care and Use Committee at The Hebrew University of Jerusalem. 1.5×10^6 CT26 cells were injected subcutaneously into the right anterior limb of each mouse. Ten days later (day 0) colorectal tumor appeared at the injection site. The mice were randomly allocated to control and experimental groups.
# Following tumor creation systemic administration via intraperitoneal (IP) injection of 5FU (experiment) or normal saline (control) was performed. 5FU injections were carried out on days 3, 4, 5. Tumor progression was evaluated by measuring the tumor volume using a Vernier caliper at days 0,1,3,4,6,8 and 10.
# Statistical analyses of tumor volumes were performed using RM two-way Analysis of Variation (ANOVA) with a confidence interval of 95% using post hoc Dunnet' s analysis of multiple comparisons for the tumor treated with 5FU bounded to 6×IONPs and Sidak's analysis for the tumor treated with free 5FU. Statistical analysis of iron staining quantification in the spleen was performed using the nonparametric Kruskal-Wallis test with a confidence interval of 95% using post hoc Dunn's analysis of multiple comparisons.
# [1] = Bound avastin concentration on IO/HSA NPs (ELISA); assay type: physicochemical; conditions: via ELISA method
# Protocol: 200 μl of NHS-PEG-MA [MA=melimide] (MW=3000 g/mol) were added to sterile IO/HSA nanoparticles dispersion in PBS (5 ml, 10 mg/mL). The reaction mixture was shaken at room temperature for 30 min. The derivatized PEGMA-conjugated IO/HSA NPs PBS dispersion was washed and eluted with bicarbonate buffer in a magnetic column, followed by immediate addition under sterile conditions of 40 μl of AV aqueous solution (25 mg/ml). The reaction mixture was shaken at 4° C. for 1.5 h. then, 10 weight % glycine solution (10 mg) were added to the AV-conjugated IO/HSA NPs bicarbonate aqueous dispersion to block residual sites. The AV-IO/HSA nanoparticles were then washed and eluted through a magnetic column with PBS and stored under sterile conditions.
# Avastin was physically conjugated to the IO/HSA nanoparticles by adding 7.5 mg of avastin to 4 mL of the IO/HSA NPs PBS dispersion (10 mg/mL). […]
# The attached and remaining concentrations of physically and covalently conjugated avastin was determined through ELISA assay using a standard protocol. The calculated covalent bound avastin concentration (via ELISA method) was 0.10 mg/1 mg of the nanoparticles. The calculated physical conjugated avastin concentration (via ELISA method) was 0.13 mg/1 mg of the nanoparticles (30% more of the covalent binding process).
# [2] = system: CT26 tumor (Bev resistant); assay: Anti-tumor activity of Bev SPIONs in Bev resistant tumors; assay type: in vivo, mice; conditions: 10 mg/kg (FIG. 13), without magnetic field
compound,measurement,setting,value
"O=c1[nH]cc(F)c(=O)[nH]1 [5FU, 5-Fluorouracil]",tumor volume / tumor growth,CT26 tumors,No significant changes in tumor volumes; also recorded: did not inhibit CT26 tumor growth at all; also recorded: no significant difference
AV-IO/HSA: Avastin covalently bound via NHS-PEG-MA to IO/HSA nanoparticles,calculated bound avastin concentration,[1],0.10 mg/1 mg of the nanoparticles
bevacizumab,tumor growth,[2]; local administration,did not yield inhibition of tumor growth; also recorded: had no effect on tumor growth
same,tumor growth,[2]; systemic administration,did not yield inhibition of tumor growth; also recorded: had no effect on tumor growth
